Reference: patent US20240181049A1, “HARNESSING THE POWER OF MICROBIOTA AND METABOLITES FOR THE TREATMENT OF CANCER” (UTI LIMITED PARTNERSHIP, priority 2019, published 2024)

Tests used:
Assay type in all cases: cell-based, mice
[1] = system: naïve CD4^+ T cells; experiment: Naive CD4+ T cells with anti-CD3/anti-CD28 coated beads; conditions: levels of adenosine in the serum
Text: (§1) FIG. 4A-4K: Effect of inosine on T cell differentiation and dependency on classical dendritic cells of ICB therapy efficacy. (a) Scatter plot of untargeted metabolomics data in the serum of anti-CTLA-4 treated, tumor-bearing B.p. monocolonized compared to C.sp. monocolonized and germ-free (GF) mice. Grey circles or dotted grey circles depict inosine or inosine fragments/adducts, respectively. […] (c) Naïve CD4^+ T cells were co-cultured with bone marrow derived dendritic cells and IFN-γ. Quantification of T-bet^+CD3ε^+CD4^+ T cells 48 hours after co-culture in the presence or absence of inosine, A2A receptor inhibitor (ZM241385), cell permeable cAMP (db-cAMP) and protein kinase A inhibitor (RP-8-CPT-CAMPS). (d) Same as (c) without IFN-γ. (e) Representative plot and quantification (left and right panel) of phospho-CREB (Ser133) levels in naïve CD4^+ T cells cultured with anti-CD3/anti-CD28 coated beads for 1 hour in the presence or absence of inosine. (f) Schematic overview of experimental setup to deplete classical dendritic cells during MC38 tumor challenge and anti-CTLA-4 treatment. Intratumoral (g) frequency of CD8^+ T cells (h) IFN-γ^+CD8^+ T cells. (i and j) same as (g and h), but CD4^+ T cells and (k) tumor weight at […]. Data are mean±SEM and pooled from two individual experiments (a-b) n=5-8 samples/group (c-e) 10-15 biological replicates/group (f-k) 10 mice/group. *, P<0.05; **, P<0.01; ***, P<0.001; ****, P<0.0001
FIG. 16A-16J: Context dependent effect of inosine on Th1 T cell differentiation. (a) Naïve CD4^+ T cells were co-cultured with bone marrow derived dendritic cells without IFN-γ. Quantification of T-bet^+CD3e^+CD4^+ T cells 48 hours after co-culture in the presence or absence of inosine and anti-CTLA-4, as indicated. (b) Naïve CD4^+ T cells were cultured anti-CD3/anti-CD28 coated beads at a ratio of 1:1 without IFN-γ for 48 hours. Representative plot and quantification of IL12Rβ2 surface expression on CD4^+ T cells in the presence or absence of inosine (left and right panel). (c) Quantification of T-bet^+CD3e^+CD4^+ T cells 48 hours after co-culture in the presence or absence of inosine, db-cAMP and anti-CTLA-4 as indicated. (d) Naïve, A2AR-deficient CD4^+ T cells were cultured with anti-CD3/anti-CD28 coated beads at a ratio of 1:1 without IFN-γ. Quantification of T-bet^+CD3e^+CD4^+ T cells 48 hours after co-culture in the presence or absence of inosine or db-cAMP (e) Representative plot and quantification (left and right panel) of pCREB expression of anti-CD3/anti-CD28 bead co-cultured CD4^+ T cells in the presence or absence of inosine or db-cAMP 1 hour after stimulation. Analysis through flow cytometry. (f and g) Naïve, wild type CD4^+ T cells were cultured with anti-CD3/anti-CD28 coated beads at a ratio of 1:1. Il12rb2 and Ifng gene transcripts (normalized to Gapdh) were evaluated 24 and 48 hours following inosine (1 mM) stimulation. Expression was normalized to cells treated with medium. Analysis through quantitative PCR assay (h) Naïve CD4^+ T cells were cultured with anti-CD3/anti-CD28 coated beads at a ratio of 1:1 without IFN-γ for 24 hours. Then inosine or vehicle was added at the indicated concentrations for another 48 hours before T cell differentiation and activation was assessed. (i) Adenosine concentrations in the duodenal-, jejunal- or cecal content of B.p. monocolonized mice and in the serum of B.p. or C.sp. monocolonized anti-CTLA-4 treated mice. (j) Naïve CD4^+ T cells were cultured with anti-CD3/anti-CD28 coated beads at a ratio of 1:1 without IFN-γ for 24 hours. Adenosine or was added then in the indicated concentrations for another 48 hours followed by T cell differentiation and activation was assessed through flow cytometry. […]

[2] = system: A2AR-deficient CD4^+ T cells; experiment: A2AR-deficient naive CD4+ T cells with anti-CD3/anti-CD28 coated beads
Experimental: FIG. 16A-16J: Context dependent effect of inosine on Th1 T cell differentiation. (a) Naïve CD4^+ T cells were co-cultured with bone marrow derived dendritic cells without IFN-γ. Quantification of T-bet^+CD3e^+CD4^+ T cells 48 hours after co-culture in the presence or absence of inosine and anti-CTLA-4, as indicated. (b) Naïve CD4^+ T cells were cultured anti-CD3/anti-CD28 coated beads at a ratio of 1:1 without IFN-γ for 48 hours. Representative plot and quantification of IL12Rβ2 surface expression on CD4^+ T cells in the presence or absence of inosine (left and right panel). (c) Quantification of T-bet^+CD3e^+CD4^+ T cells 48 hours after co-culture in the presence or absence of inosine, db-cAMP and anti-CTLA-4 as indicated. […] Quantification of T-bet^+CD3e^+CD4^+ T cells 48 hours after co-culture in the presence or absence of inosine or db-cAMP (e) Representative plot and quantification (left and right panel) of pCREB expression of anti-CD3/anti-CD28 bead co-cultured CD4^+ T cells in the presence or absence of inosine or db-cAMP 1 hour after stimulation. […] Il12rb2 and Ifng gene transcripts (normalized to Gapdh) were evaluated 24 and 48 hours following inosine (1 mM) stimulation. […] Analysis through quantitative PCR assay (h) Naïve CD4^+ T cells were cultured with anti-CD3/anti-CD28 coated beads at a ratio of 1:1 without IFN-γ for 24 hours. […]

[3] = system: naïve OVA323-339-specific OT-II CD4^+ T cells; experiment: BMDC / naive OT-II CD4+ T cell co-culture, Th1 differentiation; conditions: with IFN-γ
Text: as §1
Bone marrow derived dendritic cells (BMDCs) were generated from flushed bone marrow cells, maintained in RPMI-1640 (Sigma) supplemented with 10% FBS, 50 μm 2-Mercaptoethanol (Sigma) 100 units/ml penicillin, 100 μg/ml streptomycin sulfate and 20 ng/ml rm GM-CSF (R&D). Medium was exchanged after 48 hours and 72 hours. 5 days after culture, a magnetic cell sorting step was performed to enrich for CD11c^+ cells (Miltenyi Biotec). CD11c^+ cells were seeded in 96 flat bottom wells and pulsed with 20 ng/ml OVA323-339 and 100 ng/ml LPS (both Sigma) for 18 hours. In some conditions BMDCs were also cultured with 10 ng/ml rmIFN-γ (R&D).
Negative selection magnetic cell sorting (Miltenyi Biotec) was used to enrich naïve OT-II CD4^+ T cells. Naïve OT-II CD4^+ T cells were then co-cultured with BMDCs at a ratio of 2:1 or stimulated with anti-CD3/anti-CD28 T cell activation beads (Thermofisher) at a ratio of 1:1 for 48 hours prior to restimulation with PMA/lonomycin in the presence of Brefeldin-A and analysis (see Single cell preparation and flow cytometry for details). In some conditions cells were additionally cultured with various combinations of 2 μg/ml anti-CTLA-4, 100 μM db-cAMP (Sigma), 5 μM ZM 241385 (Sigma), 300 μM Rp-8-CPT-CAMPS (Cayman Chemical) or 2 mM inosine (Sigma) as described previously (He et al., 2017; Yao et al., 2013).

**Q.** `Nc1ncnc2c1ncn2[C@@H]1O[C@H](CO)[C@@H](O)[C@H]1O` [adenosine, reference compound] was tested. Which “Th1 activation and effector function, adenosine dose response” value [1] did it give?
**A.** insufficient to promote Th1 activation and effector function

**Q.** How did the “Th1 differentiation and phosphorylation of CREB” value [2] turn out when `CCCC(=O)Nc1ncnc2c1ncn2[C@@H]1O[C@@H]2COP(=O)(O)O[C@H]2[C@H]1OC(=O)CCC` [db-CAMP, reference compound] was run?
**A.** increased Th1 differentiation and phosphorylation of CREB in A2AR-deficient T cells

**Q.** What about the Th1 differentiation ([3]; 100 μM db-cAMP) of the same molecule?
**A.** restored Th1 differentiation and bypassed the need for inosine

**Q.** With `Nc1nc(NCCc2ccc(O)cc2)nc2nc(-c3ccco3)nn12` [ZM241385, reference compound] as the molecule, how does the “effect of inosine on Th1 differentiation” value ([3]; inhibitor added (5 μM ZM 241385; 300 μM Rp-8-CPT-CAMPS)) read?
**A.** completely abrogated the effect of inosine
